Experiments:
Assay type in all cases: in vivo
[1] = tested on: Ipornoea hederacea (IPOHE); test: Pre-emergence Test, IPOHE; conditions: 1000 g/ha, evaluated after 13 days
[2] = tested on: Amaranthus retoflexus (AMARE); test: Pre-emergence Test, AMARE; conditions: 1000 g/ha, evaluated after 13 days
ZEAMX [3] = test: Pre-emergence Test, ZEAMX; conditions: 1000 g/ha, evaluated after 13 days
ZEAMX [4] = test: Post-emergence Test, ZEAMX; conditions: sprayed after 8 days cultivation, 1000 g/ha, evaluated after 13 days
Experimental: [The procedure below names another target; the source lists this target under the same test.] (§1) Seeds of a variety of test species are sown in standard soil in pots (Amaranthus retoflexus (AMARE), Solarium nigrum (SOLNI), Setaria faberi (SETFA), Lolium perenne (LOLPE), Echinochloa crus-galli (ECHCG), Ipornoea hederacea (IPOHE)). After 8 days cultivation under controlled conditions in a glasshouse (at 24° C./16° C., day/night; 14 hours light; 65% humidity), the plants are sprayed with an aqueous spray solution derived from the formulation of the technical active ingredient in acetone/water (50:50) solution containing 0.5% Tween 20 (polyoxyethylene sorbitan monolaurate, CAS RN 9005-64-5). Compounds are applied at 1000 g/ha unless otherwise stated. The test plants are then grown in a glasshouse under controlled conditions in a glasshouse (at 24° C./16° C., day/night; 14 hours light; 65% humidity) and watered twice daily. After 13 days the test is evaluated for the percentage damage caused to the plant. The biological activities are shown in the following table on a five-point scale (5=81-100%; 4=61-80%; 3=41-60%; 2=21-40%; 1=10-20%; 0=0%; −=not tested).

Setaria faberi (SETFA) [5] = test: Post-emergence Test, SETFA; conditions: sprayed after 8 days cultivation, 1000 g/ha, evaluated after 13 days
Experimental: as §1

ABUTH [6] = test: Pre-emergence Test, ABUTH; conditions: 1000 g/ha, evaluated after 13 days
ABUTH [7] = test: Post-emergence Test, ABUTH; conditions: sprayed after 8 days cultivation, 1000 g/ha, evaluated after 13 days
Experimental: [The procedure below names another target; the source lists this target under the same test.] as §1

[8] = tested on: Amaranthus retoflexus (AMARE); test: Post-emergence Test, AMARE; conditions: sprayed after 8 days cultivation, 1000 g/ha, evaluated after 13 days
Experimental: as §1

Setaria faberi (SETFA) [9] = test: Pre-emergence Test, SETFA; conditions: 1000 g/ha, evaluated after 13 days
[10] = tested on: Ipornoea hederacea (IPOHE); test: Post-emergence Test, IPOHE; conditions: sprayed after 8 days cultivation, 1000 g/ha, evaluated after 13 days
Experimental: as §1

[11] = tested on: Echinochloa crus-galli (ECHCG); test: Pre-emergence Test, ECHCG; conditions: 1000 g/ha, evaluated after 13 days
[12] = tested on: Echinochloa crus-galli (ECHCG); test: Post-emergence Test, ECHCG; conditions: sprayed after 8 days cultivation, 1000 g/ha, evaluated after 13 days
Experimental: as §1

Question: How did the “percentage damage caused to the plant, IPOHE” value [1] turn out when `CCOC(=O)c1nn(-c2ccc(OC(F)(F)F)cc2)c2cccc(-n3cc(C(F)(F)F)cn3)c2c1=O` [Compound P31, ethyl 4-oxo-1-[4-(trifluoromethoxy)phenyl]-5-[4-(trifluoromethyl)pyrazol-1-yl]cinnoline-3-carboxylate] was run?
Answer: 0 (0=0%)

Question: And the “percentage damage caused to the plant, AMARE” value [2]?
Answer: 0 (0=0%)

Question: What about the “percentage damage caused to the plant, ZEAMX” value (ZEAMX [3]) of the same compound?
Answer: 0 (0=0%)

Question: What about the “percentage damage caused to the plant, ZEAMX” value (ZEAMX [4]) of the same compound?
Answer: 0 (0=0%)

Question: What about the “percentage damage caused to the plant, SETFA” value (Setaria faberi (SETFA) [5]) of the same compound?
Answer: 0 (0=0%)

Question: And the “percentage damage caused to the plant, ABUTH” value (ABUTH [6])?
Answer: 0 (0=0%)

Question: And the “percentage damage caused to the plant, ABUTH” value (ABUTH [7])?
Answer: 0 (0=0%)

Question: What about the “percentage damage caused to the plant, AMARE” value [8] of the same compound?
Answer: 0 (0=0%)

Question: And the “percentage damage caused to the plant, SETFA” value (Setaria faberi (SETFA) [9])?
Answer: 0 (0=0%)

Question: What about the “percentage damage caused to the plant, IPOHE” value [10] of the same compound?
Answer: 0 (0=0%)

Question: What about the “percentage damage caused to the plant, ECHCG” value [11] of the same compound?
Answer: 0 (0=0%)

Question: What about the “percentage damage caused to the plant, ECHCG” value [12] of the same compound?
Answer: 0 (0=0%)

Question: With `O=C(O)c1nn(-c2ccc(OC(F)(F)F)cc2)c2cccc(C(F)F)c2c1=O` [Compound P37, 5-(difluoromethyl)-4-oxo-1-[4-(trifluoromethoxy)phenyl] cinnoline-3-carboxylic acid] as the compound, how does the “percentage damage caused to the plant, IPOHE” value [1] read?
Answer: 0 (0=0%)

Question: And the “percentage damage caused to the plant, AMARE” value [2]?
Answer: 0 (0=0%)

Question: What about the “percentage damage caused to the plant, ZEAMX” value (ZEAMX [3]) of the same compound?
Answer: 0 (0=0%)

Question: And the “percentage damage caused to the plant, ZEAMX” value (ZEAMX [4])?
Answer: 1 (1=10-20%)

Question: What about the “percentage damage caused to the plant, SETFA” value (Setaria faberi (SETFA) [5]) of the same compound?
Answer: 2 (2=21-40%)

Question: What about the “percentage damage caused to the plant, ABUTH” value (ABUTH [6]) of the same compound?
Answer: 0 (0=0%)

Question: And the “percentage damage caused to the plant, ABUTH” value (ABUTH [7])?
Answer: 0 (0=0%)

Question: What about the “percentage damage caused to the plant, AMARE” value [8] of the same compound?
Answer: 1 (1=10-20%)

Question: What about the “percentage damage caused to the plant, SETFA” value (Setaria faberi (SETFA) [9]) of the same compound?
Answer: 0 (0=0%)

Question: And the “percentage damage caused to the plant, IPOHE” value [10]?
Answer: 1 (1=10-20%)

Question: And the “percentage damage caused to the plant, ECHCG” value [11]?
Answer: 0 (0=0%)

Question: What about the “percentage damage caused to the plant, ECHCG” value [12] of the same compound?
Answer: 2 (2=21-40%)

Question: For `CCOC(=O)c1nn(-c2ccc(OC(F)(F)F)cc2)c2cccc(C#N)c2c1=O` [Compound P38, ethyl 5-cyano-4-oxo-1-[4-(trifluoromethoxy)phenyl] cinnoline-3-carboxylate], which “percentage damage caused to the plant, IPOHE” value [1] is on record?
Answer: 1 (1=10-20%)

Question: What about the “percentage damage caused to the plant, AMARE” value [2] of the same compound?
Answer: 3 (3=41-60%)

Question: And the “percentage damage caused to the plant, ZEAMX” value (ZEAMX [3])?
Answer: 2 (2=21-40%)

Question: What about the “percentage damage caused to the plant, ZEAMX” value (ZEAMX [4]) of the same compound?
Answer: 2 (2=21-40%)

Question: What about the “percentage damage caused to the plant, SETFA” value (Setaria faberi (SETFA) [5]) of the same compound?
Answer: 4 (4=61-80%)

Question: What about the “percentage damage caused to the plant, ABUTH” value (ABUTH [6]) of the same compound?
Answer: 0 (0=0%)

Question: What about the “percentage damage caused to the plant, ABUTH” value (ABUTH [7]) of the same compound?
Answer: 1 (1=10-20%)

Question: And the “percentage damage caused to the plant, AMARE” value [8]?
Answer: 3 (3=41-60%)

Question: What about the “percentage damage caused to the plant, SETFA” value (Setaria faberi (SETFA) [9]) of the same compound?
Answer: 5 (5=81-100%)

Question: What about the “percentage damage caused to the plant, IPOHE” value [10] of the same compound?
Answer: 3 (3=41-60%)

Question: What about the “percentage damage caused to the plant, ECHCG” value [11] of the same compound?
Answer: 5 (5=81-100%)

Question: And the “percentage damage caused to the plant, ECHCG” value [12]?
Answer: 5 (5=81-100%)

Question: With `O=C(O)c1nn(-c2ccc(OC(F)(F)F)cc2)c2cccc(-n3cc(Cl)cn3)c2c1=O` [Compound P19] as the compound, how does the “percentage damage caused to the plant, IPOHE” value [1] read?
Answer: 0 (0=0%)

Question: And the “percentage damage caused to the plant, AMARE” value [2]?
Answer: 0 (0=0%)

Question: What about the “percentage damage caused to the plant, ZEAMX” value (ZEAMX [3]) of the same compound?
Answer: 1 (1=10-20%)

Question: What about the “percentage damage caused to the plant, ZEAMX” value (ZEAMX [4]) of the same compound?
Answer: 2 (2=21-40%)

Question: What about the “percentage damage caused to the plant, SETFA” value (Setaria faberi (SETFA) [5]) of the same compound?
Answer: 4 (4=61-80%)

Question: What about the “percentage damage caused to the plant, ABUTH” value (ABUTH [6]) of the same compound?
Answer: 0 (0=0%)

Question: And the “percentage damage caused to the plant, ABUTH” value (ABUTH [7])?
Answer: 1 (1=10-20%)

Question: What about the “percentage damage caused to the plant, AMARE” value [8] of the same compound?
Answer: 2 (2=21-40%)

Question: And the “percentage damage caused to the plant, SETFA” value (Setaria faberi (SETFA) [9])?
Answer: 4 (4=61-80%)

Question: What about the “percentage damage caused to the plant, IPOHE” value [10] of the same compound?
Answer: 2 (2=21-40%)

Question: And the “percentage damage caused to the plant, ECHCG” value [11]?
Answer: 3 (3=41-60%)

Question: And the “percentage damage caused to the plant, ECHCG” value [12]?
Answer: 3 (3=41-60%)

Question: `C=Cc1cccc2c1c(=O)c(C(=O)OCC)nn2-c1ccc(OC(F)(F)F)cc1` [Compound P16, ethyl 4-oxo-1-[4-(trifluoromethoxy)phenyl]-5-vinyl-cinnoline-3-carboxylate] was tested. Which “percentage damage caused to the plant, IPOHE” value [1] did it give?
Answer: 1 (1=10-20%)

Question: And the “percentage damage caused to the plant, AMARE” value [2]?
Answer: 2 (2=21-40%)

Question: What about the “percentage damage caused to the plant, ZEAMX” value (ZEAMX [3]) of the same compound?
Answer: 1 (1=10-20%)

Question: What about the “percentage damage caused to the plant, ZEAMX” value (ZEAMX [4]) of the same compound?
Answer: 2 (2=21-40%)

Question: What about the “percentage damage caused to the plant, SETFA” value (Setaria faberi (SETFA) [5]) of the same compound?
Answer: 4 (4=61-80%)

Question: And the “percentage damage caused to the plant, ABUTH” value (ABUTH [6])?
Answer: 2 (2=21-40%)

Question: What about the “percentage damage caused to the plant, ABUTH” value (ABUTH [7]) of the same compound?
Answer: 1 (1=10-20%)

Question: And the “percentage damage caused to the plant, AMARE” value [8]?
Answer: 2 (2=21-40%)

Question: And the “percentage damage caused to the plant, SETFA” value (Setaria faberi (SETFA) [9])?
Answer: 3 (3=41-60%)

Question: What about the “percentage damage caused to the plant, IPOHE” value [10] of the same compound?
Answer: 1 (1=10-20%)

Question: And the “percentage damage caused to the plant, ECHCG” value [11]?
Answer: 2 (2=21-40%)

Question: And the “percentage damage caused to the plant, ECHCG” value [12]?
Answer: 3 (3=41-60%)

Source: patent US12649722B2, “Herbicidal cinnoline derivatives” (SYNGENTA CROP PROTECTION AG, priority 2020, dated 2026)
